17 compounds from article PMC8815882, “Screening the pandemic response box identified benzimidazole carbamates, Olorofim and ravuconazole as promising drug candidates for the treatment of eumycetoma” (PLoS Neglected Tropical Diseases, 2022) can be followed below.

Values joined by “and” are separate entries in the source; they are usually repeats but may differ in a detail not shown here. Equal values may be shown once. Read-outs that look alike come from different tables or passages of the source.

The test system of the test is M. mycetomatis genome strain MM55. Briefly: CLSI M38-A2 based in vitro susceptibility screening (XTT or resazurin), growth at fixed concentration. Type of test: cell-based, Madurella mycetomatis. Conditions: for activity at 25 µM / activity at 100 µM / Percent fungal survival at 100 µM: Madurella mycetomatis; for Percent fungal survival at 100 µM: read-out: Percentage survival at 100um, 100 uM A (second replicate column). (Formazan colour is commonly taken as a measure of viable cells.)

The mark [1] stands for this setting: 25 uM, mean of three replicates, read-out: Percentage survival at 25um, 25 uM mean.
Where [2] appears, read: 25 uM, replicate A, read-out: Percentage survival at 25um, 25 um A.
The mark [3] stands for this setting: 25 uM, replicate B, read-out: Percentage survival at 25um, 25 uM B.
Where [4] appears, read: 25 uM, replicate C, read-out: Percentage survival at 25um, 25 uM C.
[5] abbreviates: 100 uM, mean of three replicates, read-out: Percentage survival at 100um, 100 uM mean.
Setting [6] is: 100 uM, replicate 1, read-out: Percentage survival at 100um, 100 uM A (first replicate column).
The mark [7] stands for this setting: 100 uM, replicate 3, read-out: Percentage survival at 100um, 100 uM A (third replicate column).
The mark [8] stands for this setting: 25 uM, mean of three, M. mycetomatis MM55, read-out: Percentage survival at 25um, 25 uM mean.
Where [9] appears, read: 25 uM, replicate A, M. mycetomatis MM55, read-out: Percentage survival at 25um, 25 um A.
[10] abbreviates: 25 uM, replicate B, M. mycetomatis MM55, read-out: Percentage survival at 25um, 25 uM B.
The mark [11] stands for this setting: 25 uM, replicate C, M. mycetomatis MM55, read-out: Percentage survival at 25um, 25 uM C.
[12] abbreviates: 100 uM, mean of three, M. mycetomatis MM55, read-out: Percentage survival at 100um, 100 uM mean.
Setting [13] is: 100 uM, replicate 1, M. mycetomatis MM55, read-out: Percentage survival at 100um, 100 uM A (first replicate column).
[14] abbreviates: 100 uM, replicate 2, M. mycetomatis MM55.
The mark [15] stands for this setting: 100 uM, replicate 3, M. mycetomatis MM55, read-out: Percentage survival at 100um, 100 uM A (third replicate column).
[16] abbreviates: 100 uM, first replicate column, read-out: Percentage survival at 100um, 100 uM A.
The mark [17] stands for this setting: 100 uM, second replicate column, read-out: Percentage survival at 100um, 100 uM A.
[18] abbreviates: 100 uM, third replicate column, read-out: Percentage survival at 100um, 100 uM A.
Where [19] appears, read: 25 uM, mean of replicates, MM55, read-out: Percentage survival at 25um, 25 uM mean.
Where [20] appears, read: 25 uM, replicate A, MM55, read-out: Percentage survival at 25um, 25 um A.
Where [21] appears, read: 25 uM, replicate B, MM55, read-out: Percentage survival at 25um, 25 uM B.
[22] abbreviates: 25 uM, replicate C, MM55, read-out: Percentage survival at 25um, 25 uM C.
[23] abbreviates: 100 uM, mean of replicates, MM55, read-out: Percentage survival at 100um, 100 uM mean.
[24] abbreviates: 100 uM, replicate 1, MM55, read-out: Percentage survival at 100um, 100 uM A.
Where [25] appears, read: 100 uM, replicate 2, MM55, read-out: Percentage survival at 100um, 100 uM A.
[26] abbreviates: 100 uM, replicate 3, MM55, read-out: Percentage survival at 100um, 100 uM A.

Consider `CCC(CC)[C@H](NC(C)=O)[C@@H]1[C@H](O)[C@@H](C(=O)O)C[C@H]1NC(=N)N` [MMV1593511], for which the activity at 25 µM runs as follows: under setting [1], 92.7%; under setting [2], 97.1%; under setting [3], 98.3%; under setting [4], 82.7%. Moreover, the activity at 100 µM turned out to be 89.1% under setting [5], 95.6% under setting [6] and 88.3% under setting [7]. The Percent fungal survival at 100 µM (100 uM, replicate 2) is 83.3%.
Regarding `C(=C\c1nc2ccccc2[nH]1)/c1ccc2c(c1)OCO2` [MMV1582495], the activity at 25 µM by setting is: under setting [8], 76.5%; under setting [9], 78.1%; under setting [10], 81.8%; under setting [11], 69.8%. In addition, the activity at 100 µM under setting [12] is 66.2%, the activity at 100 µM under setting [13] came to 59.7% and the activity at 100 µM under setting [15] came out at 64.2%. The Percent fungal survival at 100 µM under setting [14] stood at 74.5%.
As for `O=c1cc(Nc2ccc3ccccc3c2)[nH]c(=O)[nH]1` [MMV1581546], the activity at 25 µM by setting is: under setting [8], 84.3%; under setting [9], 93.6%; under setting [10], 85%; under setting [11], 74.5%. Also, the activity at 100 µM under setting [12] came to 86%, the activity at 100 µM under setting [13] came to 78.9% and the activity at 100 µM under setting [15] was 80.4%. Under setting [14], the Percent fungal survival at 100 µM was 98.5%.
In the case of `CC1(C)C[C@H]1C(=O)N/C(=C\CCCCSC[C@@H](N)C(=O)O)C(=O)O` [MMV1613559], the “Percentage survival at 100um, 100 uM A” value was 93.1771% and 127.204% and 75.2981%. The activity at 25 µM (read-out: Percentage survival at 25um, 25 uM B) was found to be 95.4%. Moreover, the activity at 25 µM (read-out: Percentage survival at 25um, 25 uM C) was determined as 77.8%. For the same compound, under “read-out: Percentage survival at 25um, 25 uM mean”, the activity at 25 µM turned out to be 92.2%. The activity at 25 µM (read-out: Percentage survival at 25um, 25 um A) is 103%. The activity at 100 µM (read-out: Percentage survival at 100um, 100 uM mean) was 98.6%.
For the compound `COc1ccc(C)cc1NC(=O)c1ccc(S(=O)(=O)N2CCCCC2)cc1` [MMV1578579], the activity at 25 µM runs as follows: under setting [8], 72.2%; under setting [9], 96.4%; under setting [10], 63%; under setting [11], 57.3%. For the same compound, the activity at 100 µM was 71.4% under setting [12], 69.7% under setting [13] and 67.5% under setting [15]. Besides, the Percent fungal survival at 100 µM under setting [14] came to 77.1%.
`CCCCCCCCCN1C[C@@H](O)[C@H](O)[C@@H](O)[C@@H]1CO` [MMV1593513]: the activity at 25 µM under setting [1] came out at 93.6%, the activity at 25 µM under setting [2] was 92%, the activity at 25 µM under setting [3] was determined as 104% and the activity at 25 µM under setting [4] stood at 85.1%. The activity at 100 µM is 87.5% under setting [5], 91.7% under setting [6] and 86.2% under setting [7]. For the setting “100 uM, replicate 2”, the Percent fungal survival at 100 µM amounted to 84.5%.
`COc1cccc(N2CCN(C3=Nc4c(F)cccc4[C@H](CC(=O)O)N3c3cc(C(F)(F)F)ccc3OC)CC2)c1` [MMV690653]: the activity at 25 µM under setting [1] amounted to 91%, the activity at 25 µM under setting [2] came to 89.7%, the activity at 25 µM under setting [3] was 103% and the activity at 25 µM under setting [4] amounted to 80%. Further, the activity at 100 µM runs as follows: under setting [16], 86.6%; under setting [5], 86.8%; under setting [17], 87.2%; under setting [18], 86.5%.
Regarding `Nc1nc(Nc2ccc3nc(-c4ccc(F)cc4)cc(N)c3c2)cc(-c2ccccc2)n1` [MMV1593541], the activity at 25 µM by setting is: under setting [8], 65.8%; under setting [9], 82.5%; under setting [10], 80.3%; under setting [11], 34.5%. Besides, the activity at 100 µM by setting is: under setting [12], 2.33%; under setting [13], 5.55%; under setting [15], -4.16%. Further, the Percent fungal survival at 100 µM under setting [14] is 5.6%.
As for `COC1CC2CCC(C)C(O)(O2)C(=O)C(=O)N2CCCCC2C(=O)OC(C(C)CC2CCC(OCCO)C(OC)C2)CC(=O)C(C)/C=C(\C)C(O)C(OC)C(=O)C(C)CC(C)/C=C/C=C/C=C/1C` (centres unmarked) [MMV639951], the activity at 25 µM under setting [1] amounted to 61.4%, the activity at 25 µM under setting [2] stood at 64.2%, the activity at 25 µM under setting [3] stood at 62.2% and the activity at 25 µM under setting [4] came out at 57.7%. The activity at 100 µM was 69.2% under setting [16], 51.7% under setting [5], 46.7% under setting [17] and 39.4% under setting [18].
In the case of `CCCCc1ccc(-c2nc(C)c(C(=O)OC)s2)cc1` [MMV1634392], the activity at 25 µM is, setting by setting: under setting [19], 77.2%; under setting [20], 84.6%; under setting [21], 81.9%; under setting [22], 65.1%. Also, the activity at 100 µM is, setting by setting: under setting [23], 65.3%; under setting [24], 48.8%; under setting [25], 54.8%; under setting [26], 92.3%.
In the case of `c1cc(CN2CCCNCCNCCCNCC2)ccc1CN1CCCNCCNCCCNCC1` [MMV1580502], the activity at 25 µM was 91.1% under setting [19], 89% under setting [20], 97.4% under setting [21] and 86.9% under setting [22]. Moreover, the activity at 100 µM was 83.6% under setting [23], 86.9% under setting [24], 83.7% under setting [25] and 80.2% under setting [26].
In the case of `O=C1CCC(N2C(=O)c3ccccc3C2=O)C(=O)N1` (centres unmarked) [MMV002612], the activity at 25 µM reads like this: under setting [1], 90.8%; under setting [2], 89.5%; under setting [3], 90.5%; under setting [4], 92.5%. Moreover, the activity at 100 µM came out at 85.3% under setting [5], 88.1% under setting [6] and 82.9% under setting [7]. Also, under “100 uM, replicate 2”, the Percent fungal survival at 100 µM worked out at 84.8%.
On to `COc1ccc(-n2cnc3cc(NCc4ccco4)ccc32)cc1` [MMV617332], for which the activity at 25 µM reads like this: under setting [1], 61.8%; under setting [2], 70.4%; under setting [3], 107%; under setting [4], 7.47%. The activity at 100 µM was determined as 18.3% under setting [16], 7.71% under setting [5], 3.66% under setting [17] and 1.23% under setting [18].
Take `O=S(=O)(Nc1ccc(O)cc1)c1cccc2cccnc12` [MMV251679]: the activity at 25 µM by setting is: under setting [1], 86.4%; under setting [2], 84.9%; under setting [3], 92.9%; under setting [4], 81.3%. In addition, the activity at 100 µM under setting [16] was 98.4%, the activity at 100 µM under setting [5] was 91.6%, the activity at 100 µM under setting [17] was 87.2% and the activity at 100 µM under setting [18] worked out at 89.3%.
With `O=C1C=C(c2ccccc2)S(=O)(=O)c2ccccc21` [MMV1006203], the activity at 25 µM reads like this: (25 uM, mean of replicates, read-out: Percentage survival at 25um, 25 uM mean) 65%; under setting [2], 59.6%; under setting [3], 126%; under setting [4], 9.78%. The activity at 100 µM reads like this: (100 uM, mean of replicates, read-out: Percentage survival at 100um, 100 uM mean) 26.1%; under setting [6], 63.3%; under setting [7], 10.9%. In addition, for the setting “100 uM, replicate 2”, the Percent fungal survival at 100 µM came out at 4.04%.
For `FC(F)(F)c1cc(C(F)(F)F)c2ccc3nc(-c4nnco4)cn3c2n1` [MMV690555], the activity at 25 µM under setting [19] amounted to 91.6%, the activity at 25 µM under setting [20] stood at 100%, the activity at 25 µM under setting [21] was found to be 96.8% and the activity at 25 µM under setting [22] was determined as 77.9%. The activity at 100 µM is, setting by setting: under setting [23], 81.1%; under setting [24], 87%; under setting [25], 83.1%; under setting [26], 73.1%.
Take `O=C(NCc1ccccc1Cl)c1cnc2ccccc2n1` [MMV1230557]: the activity at 25 µM was determined as 56.8% under setting [8], 50.8% under setting [9], 54.2% under setting [10] and 65.3% under setting [11]. For the same compound, the activity at 100 µM was found to be 67.2% under setting [12], 41.9% under setting [13] and 88.1% under setting [15]. Besides, under setting [14], the Percent fungal survival at 100 µM was 71.7%.
